Test results as given in US20250376498A1, “FUSION PROTEINS COMPRISING AN IMPROVED GLP-1 RECEPTOR AGONIST AND USES THEREOF” (Guangzhou Innogen Pharmaceutical Group Co., Ltd., priority 2022, published 2025).
“Also recorded” adds a separate entry of the source.

B1: YN-011: GLP-1 fusion protein of SEQ ID NO: 7: GLP-1 (A8G, G22E, R36G), linker peptide and IgG2/Fc domain (C222S, A330S, P331S) (protein)
chain: HGEGTFTSDVSSYLEEQAAKEFIAWLVKGGGSSGAPPPSGGGGSERKSCVECPPCPAPPVAGPSVFLFPPKPKDTLMISRTPEVTCVVVDVSHEDPEVQFNWYVDGVEVHNAKTKPREEQFNSTFRVVSVLTVVHQDWLNGKEYKCKVSNKGLPSSIEKTISKTKGQPREPQVYTLPPSREEMTKNQVSLTCLVKGFYPSDIAVEWESNGQPENNYKTTPPMLDSDGSFFLYSKLTVDKSRWQQGNVFSCSVMHEALHNHYTQKSLSLSPG

What was measured:
HMC3 microglial cells = test: Inflammatory factor expression in HMC3 microglial cells induced by Aβ1-42 oligomers (western blot); assay type: cell-based, human; conditions: for expression of TNF-α (protein) / expression of IL-6 (protein): 10 μM Aβ1-42 oligomers, 48 hours, YN-011 100 nM and 500 nM, combination 100 μM GABA and 100 nM YN-011; for expression of TNF-α (protein): GABA 10 µM and 100 μM; for expression of IL-6 (protein): GABA 100 μM; for inflammatory cytokine expression: Aβ1-42 oligomers (figure legends)
Protocol: Seed HMC3 human microglial cells into a 12-well plate. After overnight incubation at 37° C. with 5% CO2, treat the cells in each well with 10 μM Aβ1-42 oligomers alone or co-treated with 1, 10, or 100 μM GABA for 48 hours. Each drug treatment is performed in three replicate wells. After 48 hours of treatment, wash the cells with PBS and lyse the cells in RIPA buffer supplemented with protease inhibitor and phosphatase inhibitor on ice for 15 minutes. Centrifuge the cell lysate at 14,000 rpm for 30 minutes. Collect the supernatant, mix with 5× loading buffer supplemented with β-mercaptoethanol, and boil at 100° C. for 10 minutes. Separate denatured proteins by SDS-PAGE. Briefly, load 10 μg of protein onto precast mini polyacrylamide gels (SurePAGE, GenScript #M00657) and run at 120 V voltage. Subsequently, transfer the gel onto a PVDF membrane (0.22 μm pore size) at 200 mA for 90 minutes. After […], incubate the membrane at room temperature with primary antibodies diluted in 5% milk solution (TNF-α, Proteintech #60291-Ig; IL-6, Proteintech #21865-1-AP; HSP90, Proteintech #13171-1-AP) overnight at 4° C. After washing, incubate the membrane with corresponding secondary antibodies (Jackson Lab, 1:10000) at room temperature for 1 hour. After washing, visualize the antibody signals on the membrane using an ECL kit (Millipore #WBKLS0500) following the manufacturer's instructions. Calculate the relative protein levels normalized to the endogenous protein HSP90 using ImageJ.
(§1) Please refer to section 8.20 for the experimental procedure, but the drug treatment in this experiment is different from that in section 8.20. In this experiment, the drug treatment is as follows: treat the cells in each well with 10 μM Aβ1-42 oligomers alone or co-treated with 10, 100, or 500 nM YN-011 for 48 hours. Each drug treatment is performed in three replicate wells.
as §1, with “100 μM GABA and/or 100” for “10, 100, or 500”

SH-SY5Y neuronal cells [1] = test: Apoptosis in TNF-α-induced SH-SY5Y cells (Annexin V-FITC/PI flow cytometry); assay type: cell-based; conditions: 60 ng/ml TNF-α, 48 hours; YN-011 10, 100, 500 nM; GABA 1, 10, 100 μM; combination 100 μM GABA + 100 nM YN-011
Protocol: Digest the SH-SY5Y neuronal cells in a 10 cm culture dish using 0.25% trypsin to prepare a single-cell suspension. Seed the single-cell suspension into a 12-well plate. Place the culture plate in a CO2 incubator and pre-culture overnight at 37° C. with 5% CO2 to allow the cells to adhere. Using medium containing 5% FBS, treat the cells in each well with 60 ng/ml TNF-α alone or co-treated with 10, 100, or 500 nM YN-011 at 37° C. for 48 hours. Each drug treatment is performed in three replicate wells. Collect the cells and digest the cells with 0.25% trypsin without EDTA for 1 minute. Transfer the cell suspension to a 1.5 ml EP tube, centrifuge at 1000 rpm for 5 minutes, and pellet the cells at the bottom of the tube. Resuspend […] in 100 μl Binding Buffer, add 5 μl of PI and 5 μl of Annexin V-FITC solution, and incubate at room temperature in the dark for 15 minutes. Add 400 μl of Binding Buffer to each tube, and detect using a flow cytometer (Annexin V-FITC excitation wavelength: 488 nm, emission wavelength:
520 nm; PI excitation wavelength: 535 nm, emission wavelength: 617 nm). Count the number of Annexin V-FITC positive cells and PI negative cells in each sample.
Please refer to section 8.14 for the experimental procedure, but the drug treatment in this experiment is different from that in section 8.14. […]

SH-SY5Y neuronal cells [2] = test: TNF-α-induced decrease in SH-SY5Y cell viability (CCK-8); assay type: cell-based; conditions: 60 ng/ml TNF-α, 48 hours; YN-011 10, 100, 500 nM; GABA 100 μM
Protocol: SH-SY5Y neuronal cells were digested using 0.25% trypsin to prepare a single-cell suspension. The single-cell suspension was seeded in a 96-well plate at a density of 10,000 cells per well in 100 μl of medium. The plate was placed in a CO2 incubator overnight (37° C., 5% CO2) to allow cell adhesion. The medium was replaced with medium containing 10% FBS or 5% FBS, and cells were stimulated with 20, 40, 60, 80, or 100 ng/ml TNF-α for 48 hours. Each drug treatment was performed in six replicate wells. After 48 hours of drug treatment, 10 μl of CCK-8 solution was added to each well, and the plate was gently shaken to mix the reagents. The plate was then incubated in a CO2 incubator for 1-4 hours. The absorbance at 450 nm was measured using a microplate reader, and cell viability was calculated using the following formula:
[formula] • A (treated): OD value of wells containing cells, CCK-8 solution, and drug solution • A (control): OD value of wells containing cells and CCK-8 solution without drug solution • A (blank): OD value of wells without cells
Please refer to section 8.1 for the experimental procedure, but the drug treatment in this experiment is different from section 8.1. […]

Row | Molecule | expression of TNF-α (protein) (HMC3 microglial cells) | expression of IL-6 (protein) (HMC3 microglial cells) | inflammatory cytokine expression (HMC3 microglial cells) | apoptosis in TNF-α-induced neuronal cells (Annexin V-FITC positive, PI negative cells) (SH-SY5Y neuronal cells [1]) | SH-SY5Y cell viability (SH-SY5Y neuronal cells [2])
1 | NCCCC(=O)O [GABA, γ-aminobutyric acid] | significantly reduce | significantly reduces | reduction of inflammatory cytokine expression | reduces apoptosis; also recorded: reduction of apoptosis | significantly enhanced cell viability; also recorded: inhibiting TNF-α-induced reduction in SH-SY5Y cell viability
2 | B1 | significantly reduce | significantly reduce | reduction of inflammatory cytokine expression | significantly reduces apoptosis; also recorded: reduction of apoptosis | significantly enhanced cell viability; also recorded: inhibiting TNF-α-induced reduction in SH-SY5Y cell viability
